These are literature values, as cited in patent US11491229B2, “Medication system” (priority 2015, dated 2022).

For data set [1], the system named is nontumorigenic mammary cells.
A further data set relates to breast tumors. As to conditions: mice models.
For data set [2], the system named is estrogen receptor-positive and estrogen receptor-negative breast cancer cell lines. Particulars: inducing apoptosis in a concentration-dependent manner.
For the next data set, the target named is CB1 receptor (Homo sapiens, UniProt P21554).
The target of data set [3] is T1, androgen receptor in the prostate gland (Homo sapiens, UniProt P10275).
T1 sequence (P10275 1-920): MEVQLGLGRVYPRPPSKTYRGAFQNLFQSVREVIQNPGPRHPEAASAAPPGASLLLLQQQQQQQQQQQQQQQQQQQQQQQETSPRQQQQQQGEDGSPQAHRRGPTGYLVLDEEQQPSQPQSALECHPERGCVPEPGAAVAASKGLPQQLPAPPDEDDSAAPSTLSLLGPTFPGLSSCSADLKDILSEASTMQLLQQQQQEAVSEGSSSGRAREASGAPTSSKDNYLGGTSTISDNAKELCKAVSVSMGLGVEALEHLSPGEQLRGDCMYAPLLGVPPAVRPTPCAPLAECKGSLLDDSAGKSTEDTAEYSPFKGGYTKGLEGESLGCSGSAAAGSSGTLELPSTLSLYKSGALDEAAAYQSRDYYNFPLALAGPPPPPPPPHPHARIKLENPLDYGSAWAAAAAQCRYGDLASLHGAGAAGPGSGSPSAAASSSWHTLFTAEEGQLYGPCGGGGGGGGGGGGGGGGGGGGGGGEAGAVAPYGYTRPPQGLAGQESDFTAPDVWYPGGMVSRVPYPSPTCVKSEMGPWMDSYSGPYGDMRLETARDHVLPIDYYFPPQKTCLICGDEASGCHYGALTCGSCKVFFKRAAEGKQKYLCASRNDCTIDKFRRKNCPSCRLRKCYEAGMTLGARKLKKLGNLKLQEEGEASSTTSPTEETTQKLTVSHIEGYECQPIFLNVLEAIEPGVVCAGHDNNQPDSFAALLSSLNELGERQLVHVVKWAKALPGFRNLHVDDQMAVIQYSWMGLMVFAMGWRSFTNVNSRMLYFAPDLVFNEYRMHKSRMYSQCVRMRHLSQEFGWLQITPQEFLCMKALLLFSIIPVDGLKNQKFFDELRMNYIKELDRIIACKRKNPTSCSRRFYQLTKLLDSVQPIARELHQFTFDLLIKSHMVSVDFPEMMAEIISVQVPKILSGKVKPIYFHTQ

In a further data set the test system is prostate cell line, PC-3. Particulars: Ruiz et al. 1999.
Experiment in data set [4]: not given
The source holds these as a separate data set.

Sequence of CB1 receptor (P21554 whole entry): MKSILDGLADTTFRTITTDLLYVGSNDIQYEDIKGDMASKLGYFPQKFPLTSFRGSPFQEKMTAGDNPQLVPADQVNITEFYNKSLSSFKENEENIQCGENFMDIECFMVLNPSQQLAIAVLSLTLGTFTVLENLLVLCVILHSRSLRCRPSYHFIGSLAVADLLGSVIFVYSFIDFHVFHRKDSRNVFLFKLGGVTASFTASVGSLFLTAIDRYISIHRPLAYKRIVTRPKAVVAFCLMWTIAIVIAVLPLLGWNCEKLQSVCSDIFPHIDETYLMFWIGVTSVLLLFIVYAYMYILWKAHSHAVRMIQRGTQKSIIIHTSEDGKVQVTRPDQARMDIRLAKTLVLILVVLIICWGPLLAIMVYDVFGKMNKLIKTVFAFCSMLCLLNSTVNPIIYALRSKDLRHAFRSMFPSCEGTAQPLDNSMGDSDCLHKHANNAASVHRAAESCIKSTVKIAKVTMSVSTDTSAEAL

For `C=C(C)[C@@H]1CCC(C)=C[C@H]1c1c(O)cc(CCCCC)cc1O` [CBD, Cannabidiol], in data set [1], the “effect on nontumorigenic mammary cells” value is given as “little effect”. Moreover, the “affinity to cannabinoid receptors” value in the data set on cannabinoid receptors is “low affinity”. Further, the “effect on breast tumors” value in the data set with breast tumors is “shrink breast tumors, and obstruct growth and metastasis”. Further, the “survival of breast cancer cell lines” value in [2] is “inhibited the survival”.

Consider `CCCc1cc(O)c2c(c1)OC(C)(C)[C@@H]1CCC(C)=C[C@@H]21` [THCV, Tetrahydrocannabivarin], for which the “CB1 receptor mode of action” value on CB1 receptor is “antagonist”.

vitamin E: the “reduction in breast cancer incidence” value (pre-menopausal women with a family history of breast cancer, highest quantity of vitamin E consumed) is listed as 43%. For the same compound, where the note is “women without a family history of breast cancer”, the “risk reduction of breast cancer” value is listed as 16%.

Turning to `CCCCCc1cc(O)c2c(c1)OC(C)(C)[C@@H]1CCC(C)=C[C@@H]21` [THC, Tetrahydrocannabinol], the “specific binding of dihydroxytestosterone to the androgen receptor” value in [3] is recorded as “inhibits specific binding”. Moreover, the apoptosis entry in the data set on prostate cell line, PC-3 was “causes apoptosis”. In data set [4] (cold-pressor test), the “time after administration at which pain reduction effects were felt (average)” value was 180 min. In addition, in [4] (cold-pressor test after administration, smoked marijuana or oral dronabinol capsules 10 mg or 20 mg), the pain sensitivity result was “decreased pain sensitivity”. For the same compound, the duration of effects entry in [4] (dronabinol compared with smoked marijuana) is “lasted longer than smoked marijuana”.
